This passage reports IC50 results from patent US10123993B2, “Cyclic ureas as inhibitors of rock” (BRISTOL-MYERS SQUIBB COMPANY, priority 2015, dated 2018).

Counter-ions that a name gives are not always drawn.

Chain of ROCK2 (O75116 whole entry, species assumed): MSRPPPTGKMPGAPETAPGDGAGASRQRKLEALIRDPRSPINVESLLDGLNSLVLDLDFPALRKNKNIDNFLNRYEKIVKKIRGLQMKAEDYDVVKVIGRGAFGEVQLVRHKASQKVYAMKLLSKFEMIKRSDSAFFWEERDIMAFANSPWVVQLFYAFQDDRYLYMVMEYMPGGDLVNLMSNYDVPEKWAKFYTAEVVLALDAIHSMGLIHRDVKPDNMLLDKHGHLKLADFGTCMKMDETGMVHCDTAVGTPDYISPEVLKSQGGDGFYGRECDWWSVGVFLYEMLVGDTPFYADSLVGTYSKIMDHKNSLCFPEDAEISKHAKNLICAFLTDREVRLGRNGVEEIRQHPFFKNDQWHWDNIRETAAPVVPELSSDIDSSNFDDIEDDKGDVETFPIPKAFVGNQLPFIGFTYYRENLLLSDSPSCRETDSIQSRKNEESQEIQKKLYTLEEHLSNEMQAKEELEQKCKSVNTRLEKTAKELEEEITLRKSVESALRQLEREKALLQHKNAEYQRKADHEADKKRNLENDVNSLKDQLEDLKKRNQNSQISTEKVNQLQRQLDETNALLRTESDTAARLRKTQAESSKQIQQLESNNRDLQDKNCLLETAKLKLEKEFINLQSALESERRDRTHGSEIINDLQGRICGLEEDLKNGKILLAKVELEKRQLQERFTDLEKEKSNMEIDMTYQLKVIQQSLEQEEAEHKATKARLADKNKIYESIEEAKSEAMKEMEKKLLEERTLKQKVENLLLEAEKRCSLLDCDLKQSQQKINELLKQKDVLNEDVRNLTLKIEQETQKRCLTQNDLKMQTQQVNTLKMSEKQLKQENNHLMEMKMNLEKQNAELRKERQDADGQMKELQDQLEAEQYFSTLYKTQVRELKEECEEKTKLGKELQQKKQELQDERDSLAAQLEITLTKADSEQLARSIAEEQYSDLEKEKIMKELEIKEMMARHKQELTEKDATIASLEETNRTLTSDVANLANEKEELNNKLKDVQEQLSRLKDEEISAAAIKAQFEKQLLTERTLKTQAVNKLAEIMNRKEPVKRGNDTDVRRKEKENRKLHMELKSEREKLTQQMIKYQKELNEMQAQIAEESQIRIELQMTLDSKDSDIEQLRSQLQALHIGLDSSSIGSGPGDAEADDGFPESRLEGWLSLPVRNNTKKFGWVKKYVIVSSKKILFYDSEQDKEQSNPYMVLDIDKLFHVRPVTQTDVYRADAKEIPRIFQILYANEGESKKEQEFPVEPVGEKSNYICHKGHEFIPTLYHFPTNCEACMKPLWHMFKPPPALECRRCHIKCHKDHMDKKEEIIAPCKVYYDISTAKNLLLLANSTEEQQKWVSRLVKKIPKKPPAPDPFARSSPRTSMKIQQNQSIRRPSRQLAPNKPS

This assay has as its target ROCK2 (Homo sapiens, UniProt O75116). In words: ROCK2 kinase inhibition assay (Caliper LABCHIP, FITC peptide substrate). In kind it is biochemical. Conditions: 5 μM ATP, 1.5 μM peptide substrate; value ranges. The procedure, abridged: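 Dose-response curves gave IC50 from inhibition of peptide phosphorylation, measured by LabChip separation after EDTA stop. Reactions used 1.5 μM FITC-labelled peptide, 5 μM ATP, 20 mM HEPES pH 7.5 with MgCl2, Brij-35, DTT, and under 2% DMSO.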
As to `COc1cccc(Cn2ccn(-c3ccc(-c4cn[nH]c4)cc3)c2=O)c1F` [Example 337, 1-(4-(1H-pyrazol-4-yl)phenyl)-3-(2-fluoro-3-methoxybenzyl)-1H-imidazol-2(3H)-one], the IC50 (in general, the point on the concentration scale where inhibition reaches its midpoint) was in the range of 0.0201 to 0.2 µM.
In the case of `Cc1nc(N2CCN(Cc3cccc(OCC4CC4)c3)C2=O)ccc1-c1cn[nH]c1` [Example 186, 1-(3-(cyclo-propyl-methoxy)-benzyl)-3-(6-methyl-5-(1H-pyrazol-4-yl)pyridin-2-yl)-imidazolidin-2-one] it was 0.0201 to 0.2 µM; in that of `CCNC(=O)C(c1cccc(OC)c1)N1CCN(c2ccc(-c3cn[nH]c3)cc2)C1=O` (single isomer, unassigned) [Example 289, 2-(3-(4-(1H-Pyrazol-4-yl)phenyl)-2-oxoimidazolidin-1-yl)-N-ethyl-2-(3-methoxyphenyl)acetamide], 0.0021 to 0.02 µM.
In the case of `COc1cc(F)cc(CN2CCN(c3ccc(-c4cn[nH]c4)c(C4CC4)c3)C2=O)c1` [Example 469, 1-(3-cyclopropyl-4-(1H-pyrazol-4-yl)phenyl)-3-(3-fluoro-5-methoxybenzyl)imidazolidin-2-one] it was 0.0201 to 0.2 µM; in that of `COc1nc(-n2ccn(Cc3cccnc3)c2=O)ccc1-c1cn[nH]c1` [Example 417, 1-(6-methoxy-5-(1H-pyrazol-4-yl)pyridin-2-yl)-3-(pyridin-3-ylmethyl)-1H-imidazol-2(3H)-one], 0.0021 to 0.02 µM.
`CCc1nc(N2CCN(C(C)c3cccc(OCC4CC4)c3)C2=O)ccc1-c1cn[nH]c1` (single isomer, unassigned) [Example 265, 1-(1-(3-(cyclopropylmethoxy)phenyl)ethyl)-3-(6-ethyl-5-(1H-pyrazol-4-yl)pyridin-2-yl)imidazolidin-2-one] yielded an IC50 of 0.0201 to 0.2 µM.
Molecule `COc1cccc(CN2CCN(c3ccc(-c4ccncc4F)c(C)n3)C2=O)c1` [Example 205, 1-(3′-fluoro-2-methyl-[3,4′-bipyridin]-6-yl)-3-(3-methoxy-benzyl) imidazolidin-2-one] gave a half-inhibitory concentration (IC50) of 0.2 to 2 µM.
In turn, `COc1cccc(CN2C(=O)N(c3ccc(-c4cn[nH]c4)cn3)CC2(C)C)c1` [Example 451, 1-(5-(1H-pyrazol-4-yl)pyridin-2-yl)-3-(3-methoxybenzyl)-4,4-dimethylimidazolidin-2-one] had a concentration for half-maximal inhibition (IC50) of less than 0.002 µM.
In the case of `COc1cccc(CN2CCN(c3ccc(-c4cn[nH]c4)cn3)C2=O)c1` [Example 446, 1-(5-(1H-pyrazol-4-yl)pyridin-2-yl)-3-(3-methoxybenzyl)imidazolidin-2-one] it was 0.0021 to 0.02 µM; in that of `COc1cc(F)cc(CN2C(=O)N(c3ccc(-c4cn[nH]c4)cn3)CC2(C)C)c1` [Example 458, 1-(5-(1H-pyrazol-4-yl)pyridin-2-yl)-3-(3-fluoro-5-methoxybenzyl)-4,4-dimethylimidazolidin-2-one], 0.0021 to 0.02 µM; in that of `CC(C)COc1cccc(CN2CCN(c3ccc(-c4cn[nH]c4)cn3)C2=O)c1` [Example 444, 1-(5-(1H-pyrazol-4-yl)pyridin-2-yl)-3-(3-isobutoxybenzyl)imidazolidin-2-one], 0.0201 to 0.2 µM.
In the case of `O=C1N(Cc2cccc(F)c2)CCN1c1ccc(-c2ccncc2)cc1` [Example 56, 1-(3-fluorobenzyl)-3-(4-(pyridin-4-yl)phenyl)imidazolidin-2-one, TFA] it was 0.0201 to 0.2 µM; in that of `COc1cc(F)cc(CN2CCN(c3ccc(-c4cn[nH]c4)c(C)c3)C2=O)c1` [Example 274, 1-(3-fluoro-5-methoxybenzyl)-3-(3-methyl-4-(1H-pyrazol-4-yl)phenyl)imidazolidin-2-one], less than 0.002 µM.
As for `COc1cc(F)cc(CN2CCN(c3ccc(-c4cn[nH]c4)cn3)C2=O)c1` [Example 428, 1-(5-(1H-pyrazol-4-yl)pyridin-2-yl)-3-(3-fluoro-5-methoxybenzyl)imidazolidin-2-one], the IC50 was in the range of 0.0021 to 0.02 µM.
In the case of `COc1cc(C(C)n2ccn(-c3ccc(-c4cn[nH]c4)cc3)c2=O)ccc1F` (single isomer, unassigned) [Example 392, 1-(4-(1H-pyrazol-4-yl)phenyl)-3-(1-(4-fluoro-3-methoxyphenyl)ethyl)-1H-imidazol-2(3H)-one] it was 0.2 to 2 µM; in that of `COc1cccc(C(CC(=O)O)N2CCN(c3ccc(-c4cn[nH]c4)c(OC)c3)C2=O)c1` (stereo not drawn) [Example 19, 3-(3-(3-Methoxy-4-(1H-pyrazol-4-yl)phenyl)-2-oxoimidazolidin-1-yl)-3-(3-methoxyphenyl)propanoic Acid, TFA], 0.0201 to 0.2 µM.
Regarding `COc1cccc(CN2C(=O)N(c3ccc(-c4cn[nH]c4)cc3)CC2CO)c1` (racemic) [Example 37, 1-(4-(1H-Pyrazol-4-yl)phenyl)-4-(hydroxymethyl)-3-(3-methoxybenzyl)imidazolidin-2-one], the IC50 was less than 0.002 µM.
Under `O=C1N(Cc2ccccc2)CCN1c1ccc(-c2cnoc2)cc1` [Example 60, 1-benzyl-3-(4-(isoxazol-4-yl)phenyl)imidazolidin-2-one] stands 0.0201 to 0.2 µM; under `CCc1cc(-n2ccn(Cc3cccc(OC)c3)c2=O)ccc1-c1cn[nH]c1` [Example 453, 1-(3-ethyl-4-(1H-pyrazol-4-yl)phenyl)-3-(3-methoxybenzyl)-1H-imidazol-2(3H)-one], 0.0201 to 0.2 µM; under `COc1cccc(C(C)(C(N)=O)N2CCN(c3ccc(-c4cn[nH]c4)cc3)C2=O)c1` (stereo not drawn) [compound 306, 2-(3-(4-(1H-pyrazol-4-yl)phenyl)-2-oxoimidazolidin-1-yl)-2-(3-methoxyphenyl)propanamide], 0.0201 to 0.2 µM.
`COc1nc(N2CCN(Cc3cc(F)ccc3C)C2=O)ccc1-c1cn[nH]c1` [Example 250, 1-(5-fluoro-2-methylbenzyl)-3-(6-methoxy-5-(1H-pyrazol-4-yl)pyridin-2-yl)imidazolidin-2-one] displayed an IC50 of 0.0021 to 0.02 µM.
In the case of `COc1cccc(CN2C(=O)N(c3ccc(-c4cn[nH]c4)c(OC)c3)CC2CO)c1` (single isomer, unassigned) [Example 135, 4-(hydroxy-methyl)-1-(3-methoxy-4-(1H-pyrazol-4-yl)phenyl)-3-(3-methoxy-benzyl) imidazolidin-2-one] it was 0.2 to 2 µM; in that of `COc1cc(C(C)n2ccn(-c3ccc(-c4cn[nH]c4)c(OC)n3)c2=O)ccc1F` (single isomer, unassigned) [Example 389, 1-(1-(4-fluoro-3-methoxyphenyl)ethyl)-3-(6-methoxy-5-(1H-pyrazol-4-yl)pyridin-2-yl)-1H-imidazol-2(3H)-one], less than 0.002 µM; in that of `COc1cc(N2CC(=O)N(CCc3ccccc3)C2=O)ccc1-c1cn[nH]c1` [Example 103, 1-(3-methoxy-4-(1H-pyrazol-4-yl)phenyl)-3-phenethylimidazolidine-2,4-dione], 0.0201 to 0.2 µM.
In the case of `COc1cc(CN2C(=O)N(c3ccc(-c4cn[nH]c4)cc3)C[C@H]2CO)ccc1F` (single isomer, unassigned) [Example 131] it was 0.0021 to 0.02 µM; in that of `CCNC(=O)C(c1cccc(OC)c1)N1CCN(c2ccc(-c3cn[nH]c3)cc2)C1=O` (single isomer, unassigned) [Example 290, 2-(3-(4-(1H-Pyrazol-4-yl)phenyl)-2-oxoimidazolidin-1-yl)-N-ethyl-2-(3-methoxyphenyl)acetamide], 0.0201 to 0.2 µM.
Under `O=C1CN(Cc2ccccc2)C(=O)N1c1ccc(-c2cn[nH]c2)cc1` [Example 87, 3-(4-(1H-pyrazol-4-yl)phenyl)-1-benzylimidazolidine-2,4-dione] stands 0.2 to 2 µM; under `CC1(C)CN(c2ccc(-c3cn[nH]c3)cc2)C(=O)N1Cc1cccc(F)c1` [Example 141, 1-(4-(1H-pyrazol-4-yl)phenyl)-3-(3-fluoro-benzyl)-4,4-dimethyl-imidazolidin-2-one], 0.0021 to 0.02 µM; under `COc1cccc(C(C(=O)O)n2ccn(-c3ccc(-c4cn[nH]c4)c(OC)c3)c2=O)c1` (stereo not drawn) [Example 352, 2-(3-(3-methoxy-4-(1H-pyrazol-4-yl)phenyl)-2-oxo-2,3-dihydro-1H-imidazol-1-yl)-2-(3-methoxyphenyl)acetic acid], 0.2 to 2 µM.
As for `CCOC(=O)C1CN(Cc2ccccc2)C(=O)N1c1ccc(-c2cn[nH]c2)cc1` (stereo not drawn) [Example 29, Ethyl 3-(4-(1H-pyrazol-4-yl)phenyl)-1-benzyl-2-oxoimidazolidine-4-carboxylate], the half-inhibitory concentration (IC50) is 0.0201 to 0.2 µM.
In the case of `CCc1cc(N2CCN(Cc3cccc(F)c3)C2=O)ccc1-c1cn[nH]c1` [Example 24, 1-(3-Ethyl-4-(1H-pyrazol-4-yl)phenyl)-3-(3-fluorobenzyl)imidazolidin-2-one] it was 0.0021 to 0.02 µM; in that of `COc1cc(CN2CCN(c3ccc(-c4cn[nH]c4)cc3)C2=O)ccc1F` [Example 263, 1-(4-(1H-pyrazol-4-yl)phenyl)-3-(4-fluoro-3-methoxybenzyl)imidazolidin-2-one], 0.0021 to 0.02 µM.
`COc1cc(F)cc(C(C)n2ccn(-c3ccc(-c4cn[nH]c4)c(OC)n3)c2=O)c1` (single isomer, unassigned) [Example 397, 1-(1-(3-fluoro-5-methoxyphenyl)ethyl)-3-(6-methoxy-5-(1H-pyrazol-4-yl)pyridin-2-yl)-1H-imidazol-2(3H)-one] came in with an IC50 of less than 0.002 µM.
Under `COc1cccc(Cn2ccn(-c3ccc(-c4cn[nH]c4)cc3)c2=O)c1` [Example 334, l-(4-(1H-pyrazol-4-yl)phenyl)-3-(3-methoxybenzyl)-1H-imidazol-2(3H)-one] stands less than 0.002 µM.
Under `COc1cc(F)cc(C(C)n2ccn(-c3ccc(-c4cn[nH]c4)cn3)c2=O)c1` (single isomer, unassigned) [Example 394, 1-(5-(1H-pyrazol-4-yl)pyridin-2-yl)-3-(1-(3-fluoro-5-methoxyphenyl)ethyl)-1H-imidazol-2(3H)-one] stands 0.0201 to 0.2 µM.
Under `COc1cccc(CN2CCN(c3ccc(-c4cn[nH]c4)cc3)C2=O)c1` [Example 2, 1-(4-(1H-pyrazol-4-yl)phenyl)-3-(3-methoxybenzyl)imidazolidin-2-one] stands 0.0021 to 0.02 µM.
